Values joined by “and” are separate entries in the source; they are usually repeats but may differ in a detail not shown here. Equal values may be shown once. Read-outs that look alike come from different tables or passages of the source.
Experiments:
[1] = amide bond, 13-membered ring, DMF
F508del = target: T1, F508del (Homo sapiens, UniProt P13569, DEL508-508); assay: 3T3 assay: membrane potential optical assay for F508del correction; format: cell-based; settings: F508del NIH 3T3 cells; for Emax: NIH3T3, compared to lumacaftor in combination with acutely added 300 nM Ivacaftor, read-out: 3T3 Max Activity; for EC50: 18-24 hours at 37° C., forskolin, acutely added 300 nM Ivacaftor
T1 construct: expressed in transfected cells
Source text: 1. Membrane Potential Optical Methods for Assaying F508del Modulation Properties of Compounds
The assay utilizes fluorescent voltage sensing dyes to measure changes in membrane potential using a fluorescent plate reader (e.g., FLIPR III, Molecular Devices, Inc.) as a readout for increase in functional F508del in NIH 3T3 cells. The driving force for the response is the creation of a chloride ion gradient in conjunction with channel activation by a single liquid addition step after the cells have previously been treated with compounds and subsequently loaded with a voltage sensing dye.
2. Identification of Corrector Compounds
To identify correctors of F508del, a single-addition HTS assay format was developed. This HTS assay utilizes fluorescent voltage sensing dyes to measure changes in membrane potential on the FLIPR III as a measurement for increase in gating (conductance) of F508del in F508del NIH 3T3 cells. The F508del NIH 3T3 cell cultures were incubated with the corrector compounds at a range of concentrations for 18-24 hours at 37° C., and subsequently loaded with a redistribution dye. The driving force for the response is a Cl^− ion gradient in conjunction with channel activation with forskolin in a single liquid addition step using a fluorescent plate reader such as FLIPR III.
Bath Solution #1: (in mM) NaCl 160, KCl 4.5, CaCl2) 2, MgCl2 1, HEPES 10, pH 7.4 with NaOH.
Chloride-free bath solution: Chloride salts in Bath Solution #1 (above) are substituted with gluconate salts.
NIH3T3 mouse fibroblasts stably expressing F508del are used for optical measurements of membrane potential. The cells are maintained at 37° C. in 5% CO2 and 90% humidity in Dulbecco's modified Eagle's medium supplemented with 2 mM glutamine, 10% fetal bovine serum, 1× NEAA, b-ME, 1×pen/strep, and 25 mM HEPES in 175 cm^2 culture flasks. For all optical assays, the cells were seeded at ˜20,000/well in 384-well Matrigel-coated plates. For the correction assays, the cells are cultured at 37° C. with and without compounds for 16-24 hours.

CFTR [2] = target: T2, CFTR (Homo sapiens, UniProt P13569); assay: Membrane potential dye, Enteroid Assay A; format: cell-based; settings: for Ent. A Max Activity: chloride transport as % of triple combination control (Enteroid Assay A); for EC50: human enteroid cells, 18-24 hours, acute 10 μM forskolin and 300 nM ivacaftor, read-out: Ent. A EC50
Summary of the method: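 % Activity: chloride transport relative to a 3 μM/3 μM corrector pair plus 300 nM acute potentiator control. Primary human enteroid cells, 18-24 h compound exposure at 37 °C; membrane potential dye (methyl oxonol) fluorescence over 15 min after forskolin (10 μM)/IBMX (100 μM)/Compound III (300 nM) stimulation in chloride-free buffer.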

CFTR [3] = target: T2, CFTR; assay: Membrane potential dye, Enteroid Assay B; format: cell-based; settings: Table 6
Summary of the method: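 Fluorescence read over 15 min after chloride-free stimulation (10 μM forskolin, 100 μM IBMX, 300 nM Compound III) gave chloride transport, reported as % activity versus a triple-corrector/potentiator control. Beforehand, human enteroid cells had 18-24 h compound exposure at 37° C and 25 min methyl oxonol dye loading at room temperature.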

T2 sequence (P13569 with tags, fused parts or gaps DEL508-508): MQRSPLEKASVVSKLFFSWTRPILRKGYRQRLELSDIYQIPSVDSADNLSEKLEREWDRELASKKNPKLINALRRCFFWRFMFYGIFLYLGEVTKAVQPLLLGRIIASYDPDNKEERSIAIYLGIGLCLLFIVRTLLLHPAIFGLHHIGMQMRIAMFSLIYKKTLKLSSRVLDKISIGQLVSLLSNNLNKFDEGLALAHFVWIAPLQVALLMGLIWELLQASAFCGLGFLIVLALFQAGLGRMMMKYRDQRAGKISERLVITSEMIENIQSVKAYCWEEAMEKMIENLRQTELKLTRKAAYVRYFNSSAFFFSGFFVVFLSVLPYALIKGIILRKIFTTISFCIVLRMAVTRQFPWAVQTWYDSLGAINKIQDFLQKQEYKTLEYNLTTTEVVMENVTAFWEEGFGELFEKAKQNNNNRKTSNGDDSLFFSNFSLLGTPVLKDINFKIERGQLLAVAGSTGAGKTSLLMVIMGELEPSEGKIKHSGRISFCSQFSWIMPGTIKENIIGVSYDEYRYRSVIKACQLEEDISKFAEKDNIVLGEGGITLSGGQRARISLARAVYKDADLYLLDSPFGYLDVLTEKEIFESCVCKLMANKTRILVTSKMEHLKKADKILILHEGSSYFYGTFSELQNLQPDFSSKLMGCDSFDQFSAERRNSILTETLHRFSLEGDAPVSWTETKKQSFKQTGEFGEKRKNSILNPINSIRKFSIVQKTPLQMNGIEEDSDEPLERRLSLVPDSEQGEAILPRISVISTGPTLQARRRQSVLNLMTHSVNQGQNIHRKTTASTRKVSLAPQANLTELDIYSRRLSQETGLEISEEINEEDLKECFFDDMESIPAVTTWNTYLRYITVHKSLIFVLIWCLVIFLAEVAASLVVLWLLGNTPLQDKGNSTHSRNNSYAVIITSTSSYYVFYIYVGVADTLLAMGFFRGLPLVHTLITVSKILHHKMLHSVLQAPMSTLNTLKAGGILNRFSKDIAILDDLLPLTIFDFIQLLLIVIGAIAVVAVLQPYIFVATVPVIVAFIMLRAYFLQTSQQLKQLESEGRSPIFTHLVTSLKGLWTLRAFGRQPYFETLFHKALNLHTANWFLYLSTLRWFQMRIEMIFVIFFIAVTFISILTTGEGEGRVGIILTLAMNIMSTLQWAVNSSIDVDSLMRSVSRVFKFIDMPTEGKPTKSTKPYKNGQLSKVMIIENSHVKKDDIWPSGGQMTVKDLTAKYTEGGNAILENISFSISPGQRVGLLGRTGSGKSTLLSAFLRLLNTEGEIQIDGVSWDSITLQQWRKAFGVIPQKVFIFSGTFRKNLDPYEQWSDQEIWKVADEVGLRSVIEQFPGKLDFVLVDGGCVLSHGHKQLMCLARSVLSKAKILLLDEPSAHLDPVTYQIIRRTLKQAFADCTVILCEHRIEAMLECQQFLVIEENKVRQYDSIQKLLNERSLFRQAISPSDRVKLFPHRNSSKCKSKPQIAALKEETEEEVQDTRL
T1 sequence (P13569 with tags, fused parts or gaps DEL508-508): as above

SMILES	Emax (F508del; Table 6) [%]	EC50 (F508del; Table 6) [nM]	Ent. A Max Activity (CFTR [2]; Table 6)	EC50 (CFTR [2]; Table 6) [nM]	other results
COC(=O)C12CC(CN3C(=O)c4cccc(c4)S(=O)(=O)Nc4nc(cc(-c5c(C)cccc5C)n4)OC[C@H]3CC(C)(C)C)(C1)C2	–	–	–	–	ring closure, yield after HPLC ([1]; from COC(=O)C12CC(CN[C@@H](COc3cc(-c4c(C)cccc4C)nc(NS(=O)(=O)c4cccc(C(=O)O)c4)n3)CC(C)(C)C)(C1)C2, CDMT/NMM, 29.1 mM, 25.0 °C, 60.0 h): 27%
Cc1cccc(C)c1-c1cc2nc(n1)NS(=O)(=O)c1cccc(c1)C(=O)N(C[C@H]1COC(C)(C)O1)[C@H](CC(C)C)CO2	–	–	–	–	ring closure, yield after HPLC ([1]; from Cc1cccc(C)c1-c1cc(OC[C@@H](CC(C)C)NC[C@H]2COC(C)(C)O2)nc(NS(=O)(=O)c2cccc(C(=O)O)c2)n1, HATU/DIEA, 26.2 mM, 25.0 °C, 2.0 h, 2 steps): 12%
Cc1cccc(C)c1-c1cc2nc(n1)NS(=N)(=O)c1cccc(c1)C(=O)N(Cc1ncc(N3CC(C)(C)C3)cn1)[C@H](CC(C)(C)C)CO2 (single isomer, unassigned; isomer a)	–	–	–	–	ring closure, yield after HPLC ([1]; from Cc1cccc(C)c1-c1cc(OC[C@@H](CC(C)(C)C)NCc2ncc(N3CC(C)(C)C3)cn2)nc(NS(=N)(=O)c2cccc(C(=O)O)c2)n1, CDMT/NMM, 21.8 mM, 14.0 h): 9%
Cc1cccc(C)c1-c1cc2nc(n1)NS(=O)(=O)c1cccc(c1)C(=O)N(Cc1cncc(N3CCC[C@H]3C)n1)C(C1CC(C)(C)C1)CO2 (some centres unmarked)	–	–	–	–	ring closure, yield after HPLC ([1]; from Cc1cccc(C)c1-c1cc(OCC(NCc2cncc(N3CCC[C@H]3C)n2)C2CC(C)(C)C2)nc(NS(=O)(=O)c2cccc(C(=O)O)c2)n1, CDMT/NMM, 12.7 mM, 16.5 h): 18% and 17%
Cc1cccc(C)c1-c1cc2nc(n1)NS(=O)(=O)c1cccc(c1)C(=O)N(Cc1ccc(N3CCC(C)CC3)nc1)[C@H](CC(C)C)CO2 [Compound 975]	> 60	< 1000	+++ (+++ is >60%)	< 1000	Ent. B Max Activity (CFTR [3]; chloride transport as % of triple combination control (Enteroid Assay B)): +++ (+++ is >60%); EC50 (CFTR [3]; human enteroid cells, 18-24 hours, acute 10 μM forskolin and 300 nM ivacaftor, read-out: Ent. B EC50): < 1000 nM
Cc1cccc(C)c1-c1cc2nc(n1)NS(=O)(=O)c1cccc(c1)C(=O)N(C)C[C@H](c1ccc(C(C)(C)C)cn1)O2 (single isomer, unassigned) [Compound 103, 10-(5-tert-butyl-2-pyridyl)-6-(2,6-dimethylphenyl)-12-methyl-2,2-dioxo-9-oxa-2λ^6-thia-3,5,12,19-tetrazatricyclo[12.3.1.14,8]nonadeca-1(18),4(19),5,7,14,16-hexaen-13-one]	–	–	–	–	Emax (F508del; Table 7): > 60%; EC50 (F508del; Table 7): < 1000 nM; Ent. A Max Activity (CFTR [2]; Table 7): +++ (+++ is >60%); EC50 (CFTR [2]; Table 7): < 1000 nM
Cc1cccc(C)c1-c1cc2nc(n1)NS(=O)(=O)c1cccc(c1)C(=O)N(C)[C@H](CC1CCCCC1)O2 [Compound 1193]	> 60	< 1000	+++ (+++ is >60%)	< 1000	–
Cc1cccc(C)c1-c1cc2nc(n1)NS(=O)(=O)c1cccc(c1)C(=O)N(Cc1ccccc1)CC(Cc1ccccc1)O2 (stereo in doubt) [Compound 106, (10R)-10,12-dibenzyl-6-(2,6-dimethylphenyl)-9-oxa-2λ^6-thia-3,5,12,19-tetraazatricyclo[12.3.1.14,8]nonadeca-1(17),4(19),5,7,14(18),15-hexaene-2,2,13-trione]	> 60	< 1000	+++ (+++ is >60%)	< 1000	–
Cc1cccc(C)c1-c1cc2nc(n1)NS(=O)(=O)c1cccc(c1)CN(Cc1cccc3c1OC(F)(F)O3)[C@H](CC(C)C)CO2 [Compound 1029]	–	–	–	–	Emax (F508del; Table 7): > 60%; EC50 (F508del; Table 7): < 1000 nM; Ent. A Max Activity (CFTR [2]; Table 7): ++ (++ is 30-60%); EC50 (CFTR [2]; Table 7): < 1000 nM
Cc1cccc(C)c1-c1cc2nc(n1)NS(=O)(=O)c1cccc(c1)C(=O)N(CCC1CCN(C)CC1)[C@H](CC(C)C)CO2 [Compound 418]	> 60	< 1000	+++ (+++ is >60%)	< 1000	–
CCCCCCCCN1C(=O)c2cccc(c2)S(=O)(=O)Nc2nc(cc(-c3c(C)cccc3C)n2)OC[C@H]1CC(C)C [Compound 361]	> 60	< 1000	+++ (+++ is >60%)	< 1000	–
Cc1cccc(C)c1-c1cc2nc(n1)NS(=O)(=O)c1cccc(c1)C(=O)N(CCC1CCOCC1)[C@H](CC(C)C)CO2 [Compound 79, (11R)-6-(2,6-Dimethylphenyl)-11-isobutyl-2,2-dioxo-12-(2-tetrahydropyran-4-ylethyl)-9-oxa-2λ^6-thia-3,5,12,19-tetrazatricyclo[12.3.1.14,8]nonadeca-1(18),4(19),5,7,14,16-hexaen-13-one]	> 60	< 1000	+++ (+++ is >60%)	< 1000	–
Cc1cccc(C)c1-c1cc2nc(n1)NS(=O)(=O)c1cccc(c1)CN(CCC(F)(F)F)[C@H](CC(C)C)CO2 [Compound 1021]	–	–	–	–	Emax (F508del; Table 7): > 60%; EC50 (F508del; Table 7): < 1000 nM; Ent. A Max Activity (CFTR [2]; Table 7): ++ (++ is 30-60%); EC50 (CFTR [2]; Table 7): < 1000 nM
Cc1cccc(C)c1-c1cc2nc(n1)NS(=O)(=O)c1cccc(c1)CN(CCCC1(C(F)(F)F)CC1)[C@H](CC(C)C)CO2 [Compound 1023]	–	–	–	–	Emax (F508del; Table 7): > 60%; EC50 (F508del; Table 7): < 1000 nM; Ent. A Max Activity (CFTR [2]; Table 7): ++ (++ is 30-60%); EC50 (CFTR [2]; Table 7): < 1000 nM

Further lines, with some results ahead:

Emax (F508del; Table 6) [%]	EC50 (F508del; Table 6) [nM]	Ent. A Max Activity (CFTR [2]; Table 6)	EC50 (CFTR [2]; Table 6) [nM]	SMILES	other results
> 60	< 1000	+ (+ is <30%)	–	Cc1cccc(C)c1-c1cc2nc(n1)NS(=O)(=O)c1cccc(c1)C(=O)N(C)[C@H](C)[C@H](c1ccc(C(C)(C)C)cc1)O2 [Compound 338]	–
> 60	< 1000	+++ (+++ is >60%)	< 1000	Cc1cccc(C)c1-c1cc2nc(n1)NS(=O)(=O)c1cccc(c1)C(=O)N(CCO)[C@H](CC(C)C)CO2 [Compound 80, (11R)-6-(2,6-Dimethylphenyl)-12-(2-hydroxyethyl)-11-isobutyl-2,2-dioxo-9-oxa-2λ^6-thia-3,5,12,19-tetrazatricyclo[12.3.1.14,8]nonadeca-1(18),4(19),5,7,14,16-hexaen-13-one]	–
> 60	< 1000	+++ (+++ is >60%)	< 1000	Cc1cccc(C)c1-c1cc2nc(n1)NS(=O)(=O)c1cccc(c1)C(=O)N(Cc1ccc(C#N)cc1)[C@H](CC(C)C)CO2 [Compound 78, 4-[[(11R)-6-(2,6-Dimethylphenyl)-11-isobutyl-2,2,13-trioxo-9-oxa-2λ^6-thia-3,5,12,19-tetrazatricyclo[12.3.1.14,8]nonadeca-1(18),4(19),5,7,14,16-hexaen-12-yl]methyl]benzonitrile]	–
> 60	< 1000	+++ (+++ is >60%)	< 1000	Cc1cccc(C)c1-c1cc2nc(n1)NS(=O)(=O)c1cccc(c1)C(=O)N(C)[C@H](CC(C)C)C(c1ccc(C(C)(C)C)cn1)O2 (stereo in doubt) [Compound 1, (10S,11R)-10-(5-tert-butyl-2-pyridyl)-6-(2,6-dimethylphenyl)-11-isobutyl-12-methyl-2,2-dioxo-9-oxa-2λ^6-thia-3,5,12,19-tetrazatricyclo[12.3.1.14,8]nonadeca-1(18),4(19),5,7,14,16-hexaen-13-one]	–
> 60	< 1000	+++ (+++ is >60%)	< 1000	CNC(=O)c1ccc(CN2C(=O)c3cccc(c3)S(=O)(=O)Nc3nc(cc(-c4c(C)cccc4C)n3)OC[C@H]2CC(C)C)cc1 [Compound 419]	–

Source: patent US20240150377A1, “MODULATORS OF CYSTIC FIBROSIS TRANSMEMBRANE CONDUCTANCE REGULATOR” (VERTEX PHARMACEUTICALS INCORPORATED, priority 2020, published 2024)
